Target: Mcm2–7 complex
Experiment: thermal shift assay
Assay type: binding, Saccharomyces cerevisiae

Kd: 119 µM
Compound: CNC(=O)c1cc2c(cn1)[nH]c1ccccc12 [CMA, β-carboline-3-carboxylic acid N-methylamide]

Reference: PMC9196137 (SLAS discovery : advancing life sciences R & D, 2022)
